Test results taken from ChEMBL document CHEMBL2163324, “Function of the D-alanine:D-alanine ligase lid loop: a molecular modeling and bioactivity study” (J Med Chem, 2012).

Columns and labels:
[1] = Inhibition of Escherichia coli DdlB after 20 mins by malachite green staining-based colorimetric assay
Escherichia coli [2] = test: Inhibition of Escherichia coli DdlB at 500 uM after 20 mins by malachite green staining-based colorimetric assay
[3] = Competitive inhibition of Escherichia coli DdlB after 20 mins by malachite green staining-based colorimetric assay in presence of ATP
Escherichia coli [4] = test: Inhibition of Escherichia coli DdlB at 250 uM after 20 mins by malachite green staining-based colorimetric assay

O=C1NC(=O)C(=C(O)Nc2ccccc2)C(=O)N1
IC50 ([1]; read-out: IC50): 611 µM | inhibition (Escherichia coli [2]): 63%

N/C(=N\OC(=O)Nc1ccc(Cl)cc1)c1cnccn1
IC50 [1]: ND(Insoluble) | inhibition (Escherichia coli [2]): 77%

N/C(=N/OC(=O)c1ccc2nsnc2c1)c1ncon1
IC50 [1]: ND(Insoluble) | inhibition (Escherichia coli [2]): 78%

N/C(=N\OC(=O)Nc1cccc(Cl)c1)c1ccno1
Ki [3]: 326 µM | IC50 ([1]; read-out: IC50): 378 µM | inhibition (Escherichia coli [2]): 48%

Cc1cc(C(=N)NOC(=O)Nc2ccc(Cl)cc2)no1
IC50 ([1]; read-out: IC50): 656 µM | inhibition (Escherichia coli [2]): 61%

COc1ccc2c(C)nc(Nc3nc(O)cc(O)n3)nc2c1
IC50 [1]: ND(Insoluble) | inhibition (Escherichia coli [4]): 70%

O=C(N/N=C/c1cc(=O)[nH]c(O)n1)c1ccncc1
IC50 [1]: ND(Insoluble) | inhibition (Escherichia coli [2]): 62%
